Test results reported in ChEMBL document CHEMBL2021857, “Synthesis, biological activity and docking study of imidazol-5-one as novel non-nucleoside HIV-1 reverse transcriptase inhibitors” (Bioorg Med Chem, 2012).

Molecular target: Human immunodeficiency virus type 1 reverse transcriptase (Human immunodeficiency virus 1) (UniProt Q72547)
Assay: Inhibition of HIV-1 reverse transcriptase at 20 ug after 1 hr by colorimetry

| Structure (SMILES) | inhibition |
| --- | --- |
| O=C1/C(=C\c2ccccc2)N=C(c2ccccc2)N1Cc1ccncc1 | 54.4% |
| C/C=C1/N=C(C)N(Cc2ccncc2)C1=O | 64.3% |
| CC1=N/C(=C/c2ccccc2)C(=O)N1Cc1ccncc1 | 60.7% |
| COc1cc(/C=C2/N=C(c3ccccc3)N(Cc3ccncc3)C2=O)ccc1O | 50.2% |
| COc1ccc(/C=C2/N=C(c3ccccc3)N(Cc3ccncc3)C2=O)cc1 | 50% |
| COc1cc(/C=C2/N=C(c3ccccc3)N(Cc3ccncc3)C2=O)cc(OC)c1OC | 57.8% |
| O=C1/C(=C\c2ccco2)N=C(c2ccccc2)N1Cc1ccncc1 | 62.5% |
| COc1cc(/C=C2/N=C(C)N(Cc3ccncc3)C2=O)cc(OC)c1OC | 67% |
| CC1=N/C(=C/c2ccc(N(C)C)cc2)C(=O)N1Cc1ccncc1 | 58.1% |
| COc1ccc(/C=C2/N=C(C)N(Cc3ccncc3)C2=O)cc1 | 59.2% |
| CC1=N/C(=C/c2ccc(Cl)cc2)C(=O)N1Cc1ccncc1 | 69.8% |
| O=C1/C(=C\c2ccc(Cl)cc2)N=C(c2ccccc2)N1Cc1ccncc1 | 47% |
| CC1=N/C(=C/c2ccccc2O)C(=O)N1Cc1ccncc1 | 74.2% |

Next, values leading:

| inhibition | Structure (SMILES) |
| --- | --- |
| 62.8% | CC1=N/C(=C/c2ccc(Cl)cc2Cl)C(=O)N1Cc1ccncc1 |
| 70% | O=C1/C(=C\c2ccc(Cl)cc2Cl)N=C(c2ccccc2)N1Cc1ccncc1 |
| 92.7% | CC1=N/C(=C/c2ccco2)C(=O)N1Cc1ccncc1 |
| 58.7% | CC1=N/C(=C/c2c[nH]c3ccccc23)C(=O)N1Cc1ccncc1 |
| 36.8% | CN(C)c1ccc(/C=C2/N=C(c3ccccc3)N(Cc3ccncc3)C2=O)cc1 |
| 43.2% | O=C1/C(=C\c2ccccc2O)N=C(c2ccccc2)N1Cc1ccncc1 |
| 61.5% | C/C=C1/N=C(c2ccccc2)N(Cc2ccncc2)C1=O |

Molecular target: Human immunodeficiency virus type 1 reverse transcriptase (Human immunodeficiency virus 1, UniProt Q72547)
Assay: Inhibition of HIV-1 reverse transcriptase after 1 hr by colorimetry

| Structure (SMILES) | IC50 |
| --- | --- |
| CC1=N/C(=C/c2ccc(Cl)cc2)C(=O)N1Cc1ccncc1 | 3.9 µM |
| CC1=N/C(=C/c2ccccc2O)C(=O)N1Cc1ccncc1 | 3.5 µM |

The remaining lines, values ahead:

| IC50 | Structure (SMILES) |
| --- | --- |
| 3.8 µM | O=C1/C(=C\c2ccc(Cl)cc2Cl)N=C(c2ccccc2)N1Cc1ccncc1 |
| 2.5 µM | CC1=N/C(=C/c2ccco2)C(=O)N1Cc1ccncc1 |
